Data set [1] can be described thus: toxicity to animals: highest non-lethal dose given ip to ICR mice. Particulars: mouse, in vivo. On the procedure:
(§1) The above mentioned thiosemicarbazone compounds were finally powdered and suspended in dimethylsulfoxid (DMSO)-(Merck) to get stock solutions of 10 mg/ml. Stock solutions were diluted to a final volume of 0.25 ml DMSO to obtain the following concentrations: 2,5 mg, 2 mg; […], 1 mg, in 0.25 ml final volume.
(§2) Each drug concentration of the 4 thiosemicarbazone derivatives was injected in a sterile manner intraperitonally (iP) to a group of 10 ICR mice, each weighing 20 g. After one injection the mice were followed for the highest non-lethal dose, and for the lethal dose. The results are an average of three separate trials.

Data set [2] is described as follows: toxicity to animals: Lethal Dose-50 given ip to ICR mice. The note with it: mouse, in vivo, ICR mice 20 g, one injection, average of three separate trials, Table 3. On the procedure:
as §1, §2

Data set [3] concerns Moloney leukemia virus. Particulars: literature refs (1-3); cited from earlier work.
Data set [4] deals with Abelson-Moloney murine leukemia virus (Ab-MoMuLV) induced B-lymphoma. Briefly: antiviral effect in mice against B-lymphoma induced by Ab-MoMuLV. Type of data set: in vivo. Particulars: daily dose of 2 μg/4 g weight for 10 consecutive days, immediately after infection, versus untreated mice. As to the method: One of the three compounds, namely M-IBDET was examined as to its efficacy against the Abelson-Moloney murine leukemia virus (Ab-MoMuLV). Injection of susceptible mice with B-cell lymphocytes infected with Ab-MoMuLV usually results in induction of B-type lymphoma within 3 weeks. Treatment of mice immediately after infection with MoMuLV infected cells with M-IBDET at a daily dose of 2 μg/4 g weight for 10 consecutive days caused a delay of 3 weeks in the appearance of the lymphoma in the drug-treated mice as compared with untreated mice.

In data set [5] the test system is viruses belonging to the Retroviridae family. Briefly: inhibition of virus production of Retroviridae in infected cells (summary). Type of data set: cell-based. Particulars: tested by applicant. As to the method:
The thiosemicarbazone compounds described in this invention, were found by us to be specific inhibitors of viruses belonging to the Retroviridae family. Results obtained in our laboratory indicate that amounts ranging from 17 μM to 34 μM of the thiosemicarbazones suppressed specifically the production of viruses belonging to the Retroviridae family. The extent of inhibition of virus production in the infected cells was 75-85%. This inhibition was confirmed by various parameters of virus assay such as: reverse transcriptase activity, virus infectivity and contents of viral structural proteins.

In data set [6] the test system is viruses listed in Table I. The format is cell-based, Mouse, Avian, Human cells. Particulars: 34 μM, 18 hrs (such conditions of treatment).
Data set [7] has as its system pox-virus family (smallpox). Particulars: oral, 40 mg/kg for 4 consecutive days; cited from earlier work.
The test system of data set [8] is human immunodeficiency virus--HIV. In words: inhibition of HIV production in chronically infected H9 and HuT-78 cell lines. The format is cell-based, human cell lines. The note with it: evaluated in a similar manner (2 hrs, then 1:10 dilution, 24 hrs). As to the method:
The thiosemicarbazone compounds were examined for their inhibitory effect on the human immunodeficiency virus--HIV in the following chronically infected cell lines:
H9 cell line--A human established T-cell line chronically infected with HIV;
HuT-78 cell line--A human cell line chronically infected with ARV2 (HIV).
concentrations of 5×10^6 cells per ml were incubated with 17-34 μM of the different thiosemicarbazones. Virus production was assayed in the drug-treated and untreated cells after 7 hrs of exposure. An 85% inhibition of virus production was found in the drug-treated cultures as compared to control untreated cultures. Virus production was determined by assaying various virus parameters such as reverse transcriptase activity, plaque forming units (PFU) and viral structtural protein content.
The compounds were also tested by employing a different way of treatment of the HIV infected cultures: 5×10^6 infected cells were incubated with 17-34 μM of the drug for 2 hrs. Subsequently a dilution of 1:10 of the medium was performed to final concentration of 1.7-3.4 μM of the drug. The cultures were further incubated for 24 hrs in diluted medium and virus production was assayed. The extent of inhibition of HIV production achieved by the described treatment was 75-85%. M-IBT was evaluated in a similar manner.

For data set [9], the system named is EIAV. In words: inhibition of EIAV production in chronically infected fibroblast cells. Type of data set: cell-based. Particulars: 2 hrs then 1:10 dilution, further 24 hours. As to the method: Fibroblast cells of […] chronically infected with EIAV were incubated for 2 hrs with concentrations ranging from 17 μM to 34 μM of the described thiosemicarbazone compounds. Subsequently the medium was diluted 1:10 to obtain a final concentration of ranging from 1.7 to 3.4 μM. The cultures were further incubated for 24 hours and virus production was assayed in drug-treated and untreated cells. The extent of inhibition of virus production in the treated cultures was 70-80%. M-IBT was tested and found to be ineffective.

The mark [10] stands for this setting: ICR mice 20 g, one injection, average of three separate trials, Table 2.

Structures are written as SMILES. Entries after “also recorded” stand apart in the source; their conditions may differ.

Take `C=CCN1C(=O)C(=NNC(=S)N(CC)CC)c2ccccc21` [A-IBDET, 1-allylisatin-β-4':4'-diethylthiosemicarbazone]: in data set [1] (setting [10]), the MTD came to 100 mg/kg. The molecule also registered a 50% lethal dose (LD50) in data set [2] of 175 mg/kg.

In [1] (setting [10]), `C=CCN1C(=O)C(=NNC(=S)N(C)C)c2ccccc21` [A-IBDMT, 1-allylisatin-β-4':4'-dimethylthiosemicarbazone] had an MTD of 100 mg/kg. The LD50 in data set [2] is 175 mg/kg.

Regarding `CCN(CC)C(=S)NN=C1C(=O)N(C)c2ccccc21` [M-IBDET, 1-methylisatin-β-4':4'-diethylthiosemicarbazone], the “inhibition of production of Moloney leukemia virus” value in [3] is “inhibits the production of Moloney leukemia virus”. In [4], the “delay in the appearance of the lymphoma” value is on record as 3 weeks. The molecule also had an MTD in data set [1] (setting [10]) of 50 mg/kg. The molecule also returned an LD50 in data set [2] of 125 mg/kg.

For `CN1C(=O)C(=NNC(N)=S)c2ccccc21` [M-IBT, N-methylisatine 3-thiosemicarbazone], in data set [5], the “effectiveness against viruses of the Retroviridae” value was “ineffective”. Besides, the “effectiveness on virus infectivity” value in data set [6] is on record as “not effective”. Besides, the “clinical effectiveness against pox virus / smallpox” value in data set [7] was “effective in the treatment of humans against smallpox; also recorded: effective against subjects known to have contact with smallpox; also recorded: effective results; also recorded: clinically effective”. Besides, the MTD in data set [1] (ICR mice 20 g-weight) was determined as 50 mg/kg. Besides, the “inhibition of HIV production” value in [8] is “No inhibition could be detected”. Also, the LD50 in [2] stood at 125 mg/kg. In addition, the “effectiveness against EIAV” value in data set [9] is listed as “ineffective”.

By LD50 is commonly meant the dose at which mortality reaches 50%. A higher LD50 goes with a less toxic substance.

These data come from patent US4927843A (priority 1986, dated 1990).
